25 molecules from patent publication US20250034125A1, “COMPOUNDS AND USES THEREOF” (JANSSEN PHARMACEUTICA NV, priority 2019, published 2025) can be followed below.

One test deals with T1, SCD1 (Homo sapiens, UniProt O00767).
T1 construct: host or cells: Saccharomyces cerevisiae ole1Δ strain (W303 pdr1Δ pdr3Δ background), plasmid pRS316, TDH3 promoter
T1 sequence (O00767 1-359): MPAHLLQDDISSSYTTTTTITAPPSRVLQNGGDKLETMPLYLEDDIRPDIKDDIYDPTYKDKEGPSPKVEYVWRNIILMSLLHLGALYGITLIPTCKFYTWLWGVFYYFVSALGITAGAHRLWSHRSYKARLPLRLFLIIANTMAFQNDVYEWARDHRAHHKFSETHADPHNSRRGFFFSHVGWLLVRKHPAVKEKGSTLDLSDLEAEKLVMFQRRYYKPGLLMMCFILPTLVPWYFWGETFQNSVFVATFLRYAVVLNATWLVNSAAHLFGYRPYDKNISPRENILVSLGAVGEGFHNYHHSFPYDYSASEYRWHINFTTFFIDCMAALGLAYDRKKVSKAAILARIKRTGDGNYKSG
Kind of test: Growth inhibition of yeast (ole1Δ) expressing human SCD1 as the sole desaturase. Particulars: yeast strain with SCD1 plasmid, OD600 growth read at 40 h; read-out: SCD1 IC50. Type of test: cell-based.

For the next test, the target named is T2, SCD5 (Homo sapiens, UniProt Q86SK9).
T2 construct: host or cells: Saccharomyces cerevisiae ole1Δ strain (W303 pdr1Δ pdr3Δ background), plasmid pRS316, TDH3 promoter
T2 sequence (Q86SK9 1-330): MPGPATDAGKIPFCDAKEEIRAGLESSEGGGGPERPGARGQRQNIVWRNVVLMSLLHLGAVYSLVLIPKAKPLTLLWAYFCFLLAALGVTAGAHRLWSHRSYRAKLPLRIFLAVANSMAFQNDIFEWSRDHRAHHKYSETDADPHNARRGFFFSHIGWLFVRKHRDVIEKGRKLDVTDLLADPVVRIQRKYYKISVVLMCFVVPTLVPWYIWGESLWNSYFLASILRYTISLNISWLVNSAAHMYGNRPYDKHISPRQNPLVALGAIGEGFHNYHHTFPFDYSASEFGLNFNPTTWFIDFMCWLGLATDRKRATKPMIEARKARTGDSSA
Description: Growth inhibition of yeast (ole1Δ) expressing human SCD5 as the sole desaturase. Type of test: cell-based. Particulars: yeast strain with SCD5 plasmid, OD600 growth read at 40 h; read-out: SCD5 IC50.

pIC50: −log10 of the molar value.

One may read the pIC50 as the negative decadic logarithm of the IC50, by convention in mol/L. Regarding `Cn1nc(NC(=O)N2CCC(NCc3cc(F)cc(F)c3)CC2)ccc1=O` [Compound 104, 4-(3,5-difluorobenzylamino)-N-(1-methyl-6-oxo-1,6-dihydropyridazin-3-yl)piperidine-1-carboxamide], the pIC50 on SCD1 and on SCD5 was below 4.35 throughout.

On to `Cn1nc(NC(=O)N2CCC(NCc3ccccc3C(F)(F)F)CC2)ccc1=O` [Compound 105, N-(1-methyl-6-oxo-1,6-dihydropyridazin-3-yl)-4-(2-(trifluoromethyl)benzylamino) piperidine-1-carboxamide], for which the pIC50 on SCD1 and on SCD5 was below 4.35 each time.

For the molecule `Cn1nc(OC(=O)N2CCC(Oc3ccc(F)c(F)c3)CC2)ccc1=O` [Compound 107], the pIC50 at SCD1 was below 4.35; on SCD5, 5.10.

On to `Cn1nc(OC(=O)N2CCC(Oc3cc(F)cc(F)c3)CC2)ccc1=O` [Compound 108], for which the pIC50 at SCD1 is 5.05; at SCD5 it was 5.30.

For the molecule `Cn1nc(OC(=O)N2CCC(Cc3cc(F)cc(F)c3)CC2)ccc1=O` [Compound 109], the pIC50 is below 4.35 on SCD1 and 5.31 at SCD5.

Take `Cn1nc(-c2nc(N3CCC(Oc4cc(F)cc(F)c4)CC3)no2)ccc1=O` [Compound 111, 6-(3-(4-(3,5-difluorophenoxy)piperidin-1-yl)-1,2,4-oxadiazol-5-yl)-2-methylpyridazin-3(2H)-one]: the pIC50 on SCD1 was below 4.35; at SCD5, 6.21.

For the molecule `Cn1nc(-c2nc(N3CCC(Oc4cccc(F)c4Cl)CC3)no2)ccc1=O` [Compound 112, 6-(3-(4-(2-chloro-3-fluorophenoxy)piperidin-1-yl)-1,2,4-oxadiazol-5-yl)-2-methylpyridazin-3(2H)-one], the pIC50 was 6.30 at SCD1 and 6.22 at SCD5.

Regarding `Cn1nc(-c2nc(N3CCC(Cc4ccccc4)CC3)no2)ccc1=O` [Compound 113, 6-(3-(4-benzylpiperidin-1-yl)-1,2,4-oxadiazol-5-yl)-2-methylpyridazin-3(2H)-one], the pIC50 is below 4.35 on SCD1 and 6.42 on SCD5.

For the molecule `Cn1nc(-c2nc(N3CCC(Cc4cc(F)cc(F)c4)CC3)no2)ccc1=O` [Compound 115, 6-(3-(4-(3,5-difluorobenzyl)piperidin-1-yl)-1,2,4-oxadiazol-5-yl)-2-methylpyridazin-3(2H)-one], the negative-log IC50 (pIC50) is 6.35 on SCD1 and 8.00 on SCD5.

As to `Cn1nc(-c2nc(N3CCC(Cc4ccc(F)c(F)c4)CC3)no2)ccc1=O` [Compound 116, 6-(3-(4-(3,4-difluorobenzyl)piperidin-1-yl)-1,2,4-oxadiazol-5-yl)-2-methylpyridazin-3(2H)-one], the results for the pIC50 on SCD1 and at SCD5 were 6.07 and 8.00, respectively.

As for `Cn1nc(-c2nc(N3CCC(Cc4cc(Cl)cc(C#N)c4)CC3)no2)ccc1=O` [Compound 117, 3-chloro-5-((1-(5-(1-methyl-6-oxo-1,6-dihydropyridazin-3-yl)-1,2,4-oxadiazol-3-yl)piperidin-4-yl)methyl)benzonitrile], the pIC50 on SCD1 was 5.70; on SCD5, 7.52.

As to `Cn1nc(-c2nnc(N3CCC(Cc4cc(F)cc(F)c4)CC3)o2)ccc1=O` [Compound 118, 6-(5-(4-(3,5-difluorobenzyl)piperidin-1-yl)-1,3,4-oxadiazol-2-yl)-2-methylpyridazin-3(2H)-one], the pIC50 on SCD1 is 4.58; on SCD5, 7.15.

Take `Cn1nc(-c2nnc(N3CCC(Cc4cccc(F)c4)CC3)o2)ccc1=O` [Compound 119, 6-(5-(4-(3-fluorobenzyl)piperidin-1-yl)-1,3,4-oxadiazol-2-yl)-2-methylpyridazin-3(2H)-one]: the pIC50 at SCD1 is below 4.35; at SCD5, 6.80.

Regarding `Cn1nc(-c2nnc(N3CCC(Cc4cc(F)cc(F)c4)CC3)s2)ccc1=O` [Compound 121, 6-(5-(4-(3,5-difluorobenzyl)piperidin-1-yl)-1,3,4-thiadiazol-2-yl)-2-methylpyridazin-3(2H)-one], the pIC50 on SCD1 was 6.74; at SCD5 it was 8.00.

For the molecule `Cn1nc(-c2noc(N3CCC(Cc4cc(F)cc(F)c4)CC3)n2)ccc1=O` [Compound 122, 6-(5-(4-(3,5-difluorobenzyl)piperidin-1-yl)-1,2,4-oxadiazol-3-yl)-2-methylpyridazin-3(2H)-one], the pIC50 at SCD1 is 4.87; at SCD5, 5.76.

Take `Cn1nc(-c2noc(N3CCC(Cc4ccc(F)c(F)c4)CC3)n2)ccc1=O` [Compound 123, 6-(5-(4-(3,4-difluorobenzyl)piperidin-1-yl)-1,2,4-oxadiazol-3-yl)-2-methylpyridazin-3(2H)-one]: the negative-log IC50 (pIC50) on SCD1 is 5.31; at SCD5, 5.85.

Regarding `Cn1nc(-c2cnc(N3CCC(Cc4cc(F)cc(F)c4)CC3)o2)ccc1=O` [Compound 124, 6-(2-(4-(3,5-difluorobenzyl)piperidin-1-yl)oxazol-5-yl)-2-methylpyridazin-3(2H)-one], the pIC50 on SCD1 is 4.59; at SCD5 it was 6.85.

Consider `CCn1nc(NC(=O)N2CCC(Cc3cc(F)cc(F)c3)CC2)ccc1=O` [Compound 125, 4-(3,5-difluorobenzyl)-N-(1-ethyl-6-oxo-1,6-dihydropyridazin-3-yl)piperidine-1-carboxamide], for which the pIC50 at SCD1 was 5.30; at SCD5, 5.94.

For the molecule `Cc1cc(NC(=O)N2CCC(Oc3cc(F)cc(F)c3)CC2)nn(C)c1=O` [Compound 126], the pIC50 on SCD1 and on SCD5 was 7.40 throughout.

`Cc1cc(NC(=O)N2CCC(Oc3ccc(F)c(F)c3)CC2)nn(C)c1=O` [Compound 127]: the pIC50 on SCD1 and on SCD5 was 6.70 throughout.

Turning to `Cc1cc(NC(=O)N2CCC(Cc3cc(F)cc(F)c3)CC2)nn(C)c1=O` [Compound 128], the pIC50 at SCD1 is 7.30; at SCD5 it was 7.70.

As for `Cc1cc(NC(=O)N2CCC(Cc3ccc(F)c(F)c3)CC2)nn(C)c1=O` [Compound 129], the results for the pIC50 on SCD1 and at SCD5 were 6.51 and 7.10, respectively.

Regarding `Cn1nc(NC(=O)N2CCN(Cc3cccc(Cl)c3)CC2)ccc1=O` [Compound 130, 4-(3-chlorobenzyl)-N-(1-methyl-6-oxo-1,6-dihydropyridazin-3-yl)piperazine-1-carboxamide], the pIC50 at SCD1 is below 4.35; on SCD5, 4.80.

Take `Cn1nc(NC(=O)N2CCC=C(c3ccc(Cl)cc3)CC2)ccc1=O` [Compound 133, 4-(4-chlorophenyl)-N-(1-methyl-6-oxo-1,6-dihydropyridazin-3-yl)-2,3,6,7-tetrahydro-1H-azepine-1-carboxamide]: the pIC50 at SCD1 and on SCD5 was below 4.35 in each case.

With `Cn1nc(NC(=O)N2CC=C(c3ccc(Cl)cc3)CCC2)ccc1=O` [Compound 134, 5-(4-chlorophenyl)-N-(1-methyl-6-oxo-1,6-dihydropyridazin-3-yl)-2,3,4,7-tetrahydro-1H-azepine-1-carboxamide], the negative-log IC50 (pIC50) on SCD1 and at SCD5 was below 4.35 each time.
